In PubChem BioAssay (NCI):
Several values for one entry are separate records, joined by “and”; a condition that tells them apart may be missing. Equal values may be shown once.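 Five compound concentrations were applied to cells in 96-well plates for 48 hours; endpoints were derived by simple linear interpolation of the resulting dose-response curve. The concentration for 50% growth inhibition is given as GI50. At the TGI there is no net growth.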

Experiments:
Assay in all cases: DTP human tumour cell line panel, 48 h
[1] = tested on: SK-MEL-28 melanoma
[2] = tested on: UO-31 renal
[3] = tested on: UACC-257 melanoma
[4] = tested on: HCC-2998 colon
[5] = tested on: TK-10 renal
[6] = tested on: OVCAR-4 ovarian
[7] = tested on: NCI-H226 lung
[8] = tested on: HOP-62 NSCLC
[9] = tested on: EKVX NSCLC
[10] = tested on: ACHN renal
[11] = tested on: PC-3 prostate
[12] = tested on: OVCAR-3 ovarian
[13] = tested on: K-562 leukemia
[14] = tested on: A549 NSCLC
[15] = tested on: NCI-H522 lung
[16] = tested on: MCF7 breast
[17] = tested on: MDA-MB-435
[18] = tested on: BT-549 breast
[19] = tested on: OVCAR-5 ovarian
[20] = tested on: SK-MEL-2 melanoma
[21] = tested on: HS 578T breast
[22] = tested on: HOP-92 NSCLC
[23] = tested on: SK-OV-3 ovarian
[24] = tested on: RPMI-8226 leukemia
[25] = tested on: SF-268 CNS
[26] = tested on: RXF 393 renal
[27] = tested on: COLO 205 colon
[28] = tested on: MOLT-4 leukemia
[29] = tested on: KM12 colon
[30] = tested on: SW-620 colon
[31] = tested on: DU-145 prostate
[32] = tested on: LOX IMVI melanoma
[33] = tested on: NCI/ADR-RES ovarian
[34] = tested on: IGROV1 ovarian
[35] = tested on: U251 CNS
[36] = tested on: SF-539 CNS
[37] = tested on: OVCAR-8 ovarian
[38] = tested on: SN12C renal
[39] = tested on: HCT-15 colon
[40] = tested on: HT29 colon
[41] = tested on: CCRF-CEM leukemia
[42] = tested on: 786-0 renal
[43] = tested on: UACC-62 melanoma
[44] = tested on: SK-MEL-5 melanoma
[45] = tested on: HCT-116 colon
[46] = tested on: SNB-19 CNS
[47] = tested on: MDA-MB-231 breast
[48] = tested on: NCI-H23 lung
[49] = tested on: CAKI-1 renal
[50] = tested on: MALME-3M melanoma
[51] = tested on: NCI-H460 lung
[52] = tested on: T-47D breast
[53] = tested on: SF-295 CNS
[54] = tested on: SNB-75 CNS
[55] = tested on: SR leukemia
[56] = tested on: M14 melanoma
[57] = tested on: HL-60(TB) leukemia

O=C(CN(/C=C/C(=O)C(F)(F)F)c1ccccc1)c1ccc(F)cc1
GI50 [1]: 54.8 µM
TGI [1]: > 100 µM
GI50 [2]: 33.8 µM
TGI [2]: > 100 µM
GI50 [3]: 19.1 µM
TGI [3]: 93.2 µM
GI50 [4]: 17.8 µM
TGI [4]: 41.6 µM
GI50 [5]: 33 µM
TGI [5]: > 100 µM
GI50 [6]: 42.5 µM
TGI [6]: > 100 µM
GI50 [7]: 19.6 µM
TGI [7]: 47.8 µM
GI50 [8]: 75.1 µM
TGI [8]: > 100 µM
GI50 [9]: 49.9 µM
TGI [9]: > 100 µM
GI50 [10]: 22.3 µM
TGI [10]: 69.4 µM
GI50 [11]: 29 µM
TGI [11]: > 100 µM
GI50 [12]: 25.8 µM
TGI [12]: 68.7 µM
GI50 [13]: 18.1 µM
TGI [13]: 52.6 µM
GI50 [14]: 35.4 µM
TGI [14]: > 100 µM
GI50 [15]: 19.2 µM
TGI [15]: 46.5 µM
GI50 [16]: 23.2 µM
TGI [16]: 59.3 µM
GI50 [17]: 27.1 µM
TGI [17]: 72.1 µM
GI50 [18]: 31.5 µM
TGI [18]: > 100 µM
GI50 [19]: 25.6 µM
TGI [19]: 88.7 µM
GI50 [20]: 26.3 µM
TGI [20]: 70.1 µM
GI50 [21]: 2.57 µM
TGI [21]: 8.33 µM
GI50 [22]: 24.8 µM
TGI [22]: 90.4 µM
GI50 [23]: 55 µM
TGI [23]: > 100 µM
GI50 [24]: 19.3 µM
TGI [24]: 54 µM
GI50 [25]: 23.1 µM
TGI [25]: 64.5 µM
GI50 [26]: 39.8 µM
TGI [26]: > 100 µM
GI50 [27]: 25 µM
TGI [27]: 58.3 µM
GI50 [28]: 23.6 µM
TGI [28]: 79.8 µM
GI50 [29]: 24.9 µM
TGI [29]: 69.9 µM
GI50 [30]: 19.9 µM
TGI [30]: 42.9 µM
GI50 [31]: 50 µM
TGI [31]: > 100 µM
GI50 [32]: 15.5 µM
TGI [32]: 37.6 µM
GI50 [33]: 23.6 µM
TGI [33]: 66 µM
GI50 [34]: 21.9 µM
TGI [34]: 79.2 µM
GI50 [35]: 22.9 µM
TGI [35]: 69.8 µM
GI50 [36]: 28.7 µM
TGI [36]: 63.8 µM
GI50 [37]: 47.4 µM
TGI [37]: > 100 µM
GI50 [38]: 21.2 µM
TGI [38]: 54.9 µM
GI50 [39]: 25.4 µM
TGI [39]: > 100 µM
GI50 [40]: 38.9 µM
TGI [40]: > 100 µM
GI50 [41]: 15.8 µM
TGI [41]: 41.4 µM
GI50 [42]: 41.1 µM
TGI [42]: > 100 µM
GI50 [43]: 13 µM
TGI [43]: 26.9 µM
GI50 [44]: 1.34 µM
TGI [44]: 12.3 µM
GI50 [45]: 25.3 µM
TGI [45]: 88.1 µM
GI50 [46]: 46 µM
TGI [46]: > 100 µM
GI50 [47]: 17.7 µM
TGI [47]: 42.1 µM
GI50 [48]: 29.5 µM
TGI [48]: > 100 µM
GI50 [49]: 19.8 µM
TGI [49]: 48.9 µM
GI50 [50]: 26.7 µM
TGI [50]: 74.1 µM
GI50 [51]: 22.6 µM
TGI [51]: 59.3 µM
GI50 [52]: 35.3 µM
TGI [52]: > 100 µM
GI50 [53]: 20.8 µM
TGI [53]: 69.6 µM

Oc1c(I)cc(Cl)c2cccnc12
GI50 [1]: 3.75 µM and 6.69 µM
TGI [1]: > 100 µM
GI50 [2]: 2.35 µM and 22.1 µM
TGI [2]: 11.5 µM and 52.9 µM
GI50 [3]: 3.61 µM and 24.5 µM
TGI [3]: 83.5 µM and 71.5 µM
GI50 [4]: 5.55 µM and 12.7 µM
TGI [4]: 36 µM and 59.4 µM
GI50 [5]: 31.3 µM and 24 µM
TGI [5]: > 100 µM and 73.8 µM
GI50 [6]: 2.82 µM and 4.39 µM
TGI [6]: 13.8 µM and > 100 µM
GI50 [7]: 3.02 µM and 2.66 µM
TGI [7]: 20 µM and 8.8 µM
GI50 [8]: 4.02 µM and 4.07 µM
TGI [8]: 28.5 µM and 20.1 µM
GI50 [9]: 2.89 µM and 25.4 µM
TGI [9]: 18 µM and 57.9 µM
GI50 [10]: 3.52 µM and 3.5 µM
TGI [10]: 21.7 µM and 23.7 µM
GI50 [11]: 4.37 µM and 4.87 µM
TGI [11]: 57.5 µM and 81.6 µM
GI50 [54]: 4.42 µM
TGI [54]: > 100 µM
GI50 [12]: 5.62 µM and 21.3 µM
TGI [12]: 65.1 µM and 61.5 µM
GI50 [13]: 3.91 µM
TGI [13]: > 100 µM
GI50 [14]: 3.96 µM and 8.89 µM
TGI [14]: > 100 µM
GI50 [15]: 3.93 µM and 14.5 µM
TGI [15]: 30.2 µM and 36.4 µM
GI50 [16]: 3.24 µM and 6.36 µM
TGI [16]: 41.3 µM and > 100 µM
GI50 [17]: 4.2 µM and 32.8 µM
TGI [17]: > 100 µM
GI50 [18]: 3.27 µM and 23.1 µM
TGI [18]: 8.99 µM and 65.3 µM
GI50 [19]: 6.43 µM and 13.2 µM
TGI [19]: 73.5 µM and 49.6 µM
GI50 [20]: 11 µM and 14.7 µM
TGI [20]: > 100 µM and 41.3 µM
GI50 [21]: 7.78 µM and 8.12 µM
TGI [21]: > 100 µM and 57.7 µM
TGI [22]: 17.9 µM and 50.3 µM
GI50 [23]: 6.24 µM and 9.06 µM
TGI [23]: 22 µM and > 100 µM
GI50 [24]: 3.43 µM and 2.86 µM
TGI [24]: 27.2 µM and 10.8 µM
GI50 [25]: 3.86 µM and 6.22 µM
TGI [25]: > 100 µM
GI50 [55]: 3.15 µM
TGI [55]: 8.61 µM
GI50 [26]: 2.27 µM and 16.8 µM
GI50 [27]: 5.21 µM and 5.72 µM
TGI [27]: 21.8 µM and 75.4 µM
GI50 [28]: 3.37 µM and 3.12 µM
TGI [28]: 9.93 µM and 21.4 µM
GI50 [29]: 5.98 µM and 18.2 µM
TGI [29]: 49.9 µM and 47.7 µM
GI50 [30]: 4.05 µM and 3.73 µM
TGI [30]: > 100 µM and 32.5 µM
GI50 [31]: 5.9 µM and 21.2 µM
TGI [31]: > 100 µM and 50.6 µM
GI50 [32]: 2.66 µM and 4.03 µM
TGI [32]: 39.4 µM and 24.2 µM
GI50 [33]: 3.21 µM and 4.12 µM
TGI [33]: 36 µM and 45.7 µM
GI50 [34]: 3.91 µM and 13 µM
TGI [34]: 24.2 µM and 36.5 µM
GI50 [35]: 3.9 µM and 3.65 µM
TGI [35]: > 100 µM and 32.8 µM
GI50 [56]: 2.08 µM
TGI [56]: 4.37 µM
GI50 [36]: 3.31 µM and 24.3 µM
TGI [36]: 13.7 µM and 52.6 µM
GI50 [37]: 3.96 µM and 27.2 µM
TGI [37]: > 100 µM and 99.3 µM
GI50 [57]: 2.77 µM
TGI [57]: 6.22 µM
GI50 [38]: 3.27 µM and 4.82 µM
TGI [38]: > 100 µM and 26.3 µM
GI50 [39]: 5.48 µM and 3.82 µM
TGI [39]: > 100 µM and 38.5 µM
GI50 [40]: 11.3 µM and 6.1 µM
TGI [40]: > 100 µM
GI50 [41]: 2.81 µM and 1.89 µM
TGI [41]: 9.89 µM and 4.71 µM
GI50 [42]: 3.28 µM and 3.86 µM
TGI [42]: 12.6 µM and 17.6 µM
GI50 [43]: 1.81 µM and 2.06 µM
TGI [43]: 4.56 µM and 5.09 µM
GI50 [44]: 1.83 µM and 4.12 µM
TGI [44]: 4.23 µM and 16.1 µM
GI50 [45]: 3.31 µM and 2.67 µM
TGI [45]: 11.1 µM and 9.05 µM
GI50 [46]: 3.71 µM and 9.32 µM
TGI [46]: > 100 µM
GI50 [47]: 3.54 µM and 2.7 µM
TGI [47]: 35.2 µM and 12.8 µM
GI50 [48]: 3.74 µM and 8.04 µM
TGI [48]: 31.4 µM and > 100 µM
GI50 [49]: 2.38 µM and 21.4 µM
GI50 [50]: 3.97 µM and 16.5 µM
TGI [50]: 21.6 µM and 46.5 µM
GI50 [51]: 3 µM and 5.84 µM
TGI [51]: > 100 µM and 85.1 µM
GI50 [52]: 4.16 µM and 8.7 µM
TGI [52]: 28.7 µM and > 100 µM
GI50 [53]: 2.62 µM and 22.2 µM
